Measured values as given in patent US9127103B2, “Polymerizable liquid crystal compound, a liquid crystal composition comprising the compound, and an optically anisotropic body comprising the same” (LG CHEM, LTD., priority 2012, dated 2015).

Legend:
[1] = Measurement of solubility of the compound in various solvents; format: physicochemical; details: for Solubility TXB: TXB = Toluene:Xylene:Butyl cellosolve 7:2:1 (weight ratio); for Solubility TXB / Solubility Cyclopentanone / Solubility Toluene + Heated: 25 parts by weight per 100 parts of solution; for Solubility Toluene + Heated: room temperature solution heated about 10 secs with a heat gun; for Solubility Toluene: 25 parts by weight of compound per 100 parts by weight of total solution
Description: At this time, the content of each compound in the solvent was 25 parts by weight per 100 parts by weight of total solution. In the following Table 1, when the compound was completely dissolved in the solvent and the solution was transparent, it was indicated by ‘◯’; when the compound was dissolved in the solvent but the solution was opaque, it was indicated by ‘Δ’; and when the compound was not dissolved at all, it was indicated by ‘×’. And, the term ‘heated’ in Table 1 means that the solution of room temperature including the compound was heated for about 10 secs by using a heat gun.

[2] = Measurement of birefringence (Δn) of retardation films by Axoscan; format: physicochemical; details: retardation film of the compound; solvent TXB, TAC film; Δn calculated from retardation value and film thickness
Description: The liquid crystal composition coated with a roll coating method on a TAC (triacetyl cellulose) film on which norbornene-based photoaligning material was coated, and dried at about 80° C. for 2 mins so as that the liquid crystal compound was aligned. And then, the retardation film was prepared by exposing the film to a non-polarized UV from a high pressure mercury lamp of 200 mW/cm^2 so as to fixing the oriented state of the liquid crystal.
Like above method, the compositions including any one of compounds RM-02 to RM-08 instead of compound RM-01 were prepared, and the retardation films were prepared respectively by using the same.
And, the retardation film was prepared substantially according to the same method as in Preparation Examples 1˜8, except that the compound of Chemical Formula 10 was used instead of compound RM-01.
Quantitative retardation values of the retardation films according to Preparation Examples 1˜8, Comparative Preparation Examples 1˜2, and Reference Example were measured by using Axoscan (made by Axomatrix Co.). At this time, the thickness of the film was independently measured and Δn was calculated from the obtained values.

Structure (SMILES)	Solubility TXB [1]	Solubility Cyclopentanone [1]	Solubility Toluene + Heated [1]	Δn (Solvent, Film) [2]	Solubility Toluene [1]	Solubility in TXB mixed solvent [1]	Solubility in toluene [1]	Solubility in toluene with heating [1]
C=CC(=O)OCCCOc1ccc(C(=O)Oc2ccc(OC(=O)c3ccc(OCCCOC(=O)C=C)cc3)c(C)c2)cc1 [RM257, reference compound]	∘	∘	∘	0.12 (TXB, TAC)				
C=CC(=O)OCCCOc1ccc2cc(C(=O)Oc3ccc(OC(=O)c4ccc5cc(OCCCOC(=O)C=C)ccc5c4)c(C=O)c3)ccc2c1 [RM-01]	∘	∘	∘	0.17 (TXB, TAC)				
C=CC(=O)OCCCCCCOc1ccc2cc(C(=O)Oc3ccc(OC(=O)c4ccc5cc(OCCCCCCOC(=O)C=C)ccc5c4)c(C=O)c3)ccc2c1 [RM-02]	∘		∘	0.18 (TXB, TAC)				
C=CC(=O)OCCCOc1ccc2cc(C(=O)Oc3ccc(OC(=O)c4ccc5cc(OCCCOC(=O)C=C)ccc5c4)c([N+](=O)[O-])c3)ccc2c1 [RM-03]	∘	∘	∘	0.17 (TXB, TAC)	∘			
C=CC(=O)OCCCCCCOc1ccc2cc(C(=O)Oc3ccc(OC(=O)c4ccc5cc(OCCCCCCOC(=O)C=C)ccc5c4)c([N+](=O)[O-])c3)ccc2c1 [RM-04]	∘	∘	∘	0.20 (TXB, TAC)				
C=CC(=O)OCCCOc1ccc2cc(C(=O)Oc3ccc(OC(=O)c4ccc5cc(OCCCOC(=O)C=C)ccc5c4)c(S(C)(=O)=O)c3)ccc2c1 [RM-05]	∘	∘	∘	0.19 (TXB, TAC)	∘			
C=CC(=O)OCCCCCCOc1ccc2cc(C(=O)Oc3ccc(OC(=O)c4ccc5cc(OCCCCCCOC(=O)C=C)ccc5c4)c(S(C)(=O)=O)c3)ccc2c1 [RM-06]	∘	∘	∘	0.20 (TXB, TAC)				
C=CC(=O)OCCCOc1ccc2cc(C(=O)Oc3ccc(OC(=O)c4ccc5cc(OCCCOC(=O)C=C)ccc5c4)c(S(=O)(=O)CC)c3)ccc2c1 [RM-07]	∘	∘	∘	0.19 (TXB, TAC)	∘			
C=CC(=O)OCCCCCCOc1ccc2cc(C(=O)Oc3ccc(OC(=O)c4ccc5cc(OCCCCCCOC(=O)C=C)ccc5c4)c(S(=O)(=O)CC)c3)ccc2c1 [RM-08]	∘	∘	∘	0.22 (TXB, TAC)				
C=CC(=O)OCCCOc1ccc2cc(C(=O)Oc3ccc(OC(=O)c4ccc5cc(OCCCOC(=O)C=C)ccc5c4)cc3)ccc2c1 [RM-09, reference compound]						not dissolved in TXB mixed solvent at all	not dissolved in toluene at all	just opaque solution was obtained
C=CC(=O)OCCCCCCOc1ccc2cc(C(=O)Oc3ccc(OC(=O)c4ccc5cc(OCCCCCCOC(=O)C=C)ccc5c4)cc3)ccc2c1 [RM-10, reference compound]						not dissolved in TXB mixed solvent at all	not dissolved in toluene at all	just opaque solution was obtained
